pEC50: −log10 of the molar value.
Target: human FXR (NR1H4) (Homo sapiens (Human), UniProt Q96RI1)
Assay: Human FXR (NR1H4) Assay (Gal4 promoter driven luciferase reporter, Indigo Bioscience kit)
Type: cell-based
Conditions: CHO reporter cells expressing human NR1H4; for Efficacy (%): normalized to CDCA set as 100%; for pEC50: 22 hours incubation, potency ranges
Experimental: To a solution of compound (1) (211 mg, 0.37 mmol) in toluene (3 ml) was added dropwise triethylamine (0.10 ml, 0.74 mmol) and diphenyl phosphorazidate (0.087 ml, 0.40 mmol). The mixture was stirred at 23° C. for 1 h, at 85° C. for 3.5 h, and cooled to 23° C. A solution of N,N-dimethylsulfamide (68 mg, 0.55 mmol) in THF (0.5 mL) and DBU (83 μl, 0.55 mmol) was added. The mixture was stirred at 23° C. for 16 h, quenched with 1 M HCl, and extracted with EtOAc (2×). The combined organic layers were washed with brine and concentrated in vacuo. The residue was purified by chromatography on silica gel column eluting with hexane/acetone (100/0 to 70/30, 10 min) to provide Example 7. Assays Human FXR (NR1H4) Assay
Determination of a ligand mediated Gal4 promoter driven transactivation to quantify ligand binding mediated activation of FXR. FXR Reporter Assay kit purchased from Indigo Bioscience (Catalogue number: IB00601) to determine the potency and efficacy of compound developed by Enanta that can induce FXR activation. The principle application of this reporter assay system is to quantify functional activity of human FXR. The assay utilizes non-human mammalian cells, CHO (Chinese hamster ovary) cells engineered to express human NR1H4 protein (referred to as FXR). Reporter cells also incorporate the cDNA encoding beetle luciferase which catalyzes the substrates and yields photon emission. Luminescence intensity of the reaction is quantified using a plate-reading luminometer, Envision. Reporter Cells include the luciferase reporter gene functionally linked to an FXR responsive promoter. Thus, quantifying changes in luciferase expression in the treated reporter cells provides a sensitive surrogate measure of the changes in FXR activity. […] The assay is according to the manufacturer's instructions. In brief, the assay was performed in white, 96 well plates using final volume of 100 μl containing cells with different doses of compounds. Retrieve Reporter Cells from −80° C. storage. Perform a rapid thaw of the frozen cells by transferring a 10 ml volume of 37° C. cell recovery medium into the tube of frozen cells. Recap the tube of Reporter Cells and immediately place it in a 37° C. water bath for 5-10 minutes. Retrieve the tube of Reporter Cell Suspension from the water bath. Sanitize the outside surface of the tube with a 70% alcohol swab, and then transfer it into the cell culture hood. Dispense 90 μl of cell suspension into each well of the 96-well Assay Plate. Transfer the plate into 37° C. incubator, allowing the cells adherent to the bottom of the well. Dilute compounds in Dilution Plate (DP), and administrate to cells at Assay Plate (AP). DMSO content of the samples was kept at 0.2%. Cells were incubated for additional 22 hours before luciferase activities were measured. Thirty minutes before intending to quantify FXR activity, remove Detection Substrate and Detection Buffer from the refrigerator and place them in a low-light area so that they may equilibrate to room temperature. Remove the plate's lid and discard all media contents by ejecting it into an appropriate waste container. Gently tap the inverted plate onto a clean absorbent paper towel to remove residual droplets. Cells will remain tightly adhered to well bottoms. Add 100 μl of luciferase detection reagent to each well of the assay plate. Allow the assay plate to rest at room temperature for at least 5 minutes following the addition of LDR. Set the instrument (Envision) to perform a single 5 second “plate shake” prior to reading the first assay well. Read time may be 0.5 second (500 mSec) per well.

Sequence of human FXR (NR1H4) (Q96RI1 whole entry, the tested form may be a part): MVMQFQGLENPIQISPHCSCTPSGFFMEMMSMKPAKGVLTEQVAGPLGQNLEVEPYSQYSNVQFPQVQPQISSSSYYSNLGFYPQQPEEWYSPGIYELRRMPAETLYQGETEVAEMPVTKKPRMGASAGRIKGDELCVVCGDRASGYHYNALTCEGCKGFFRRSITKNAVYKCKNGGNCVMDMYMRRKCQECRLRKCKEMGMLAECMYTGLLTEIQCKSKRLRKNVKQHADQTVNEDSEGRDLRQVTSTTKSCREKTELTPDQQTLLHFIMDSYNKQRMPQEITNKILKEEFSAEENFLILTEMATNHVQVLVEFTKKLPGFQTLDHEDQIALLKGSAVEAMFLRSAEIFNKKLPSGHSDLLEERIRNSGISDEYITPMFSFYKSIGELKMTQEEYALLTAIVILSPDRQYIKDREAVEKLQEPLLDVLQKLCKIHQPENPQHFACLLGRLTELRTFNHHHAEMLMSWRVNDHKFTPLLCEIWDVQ

Structure (SMILES)	Efficacy (%)	pEC50
CN(C)S(=O)(=O)NC(=O)c1ccc2nc(N3C4CC[C@H]3C[C@H](OCc3c(-c5c(Cl)cccc5Cl)noc3C3CC3)C4)sc2c1 [Example 1]	204	
O=C(NS(=O)(=O)C1CC1)c1ccc2nc(N3C4CC[C@H]3CC(OCc3c(-c5c(Cl)cccc5Cl)noc3C3CC3)C4)sc2c1 (some centres unmarked) [Example 2]	204	> 7.00
CC(C)(C)c1ccc(S(=O)(=O)NC(=O)c2ccc3nc(N4C5CC[C@H]4CC(OCc4c(-c6c(Cl)cccc6Cl)noc4C4CC4)C5)sc3c2)cc1 (some centres unmarked) [Example 3]	226	> 7.00
CN(C)S(=O)(=O)NC(=O)c1ccc(N2C3CC[C@H]2CC(OCc2c(-c4c(Cl)cccc4Cl)noc2C2CC2)C3)c(F)c1 (some centres unmarked) [Example 4]	174	> 7.00
CC(C)(C)c1ccc(S(=O)(=O)NC(=O)c2ccc(N3C4CC[C@H]3CC(OCc3c(-c5c(Cl)cccc5Cl)noc3C3CC3)C4)c(F)c2)cc1 (some centres unmarked) [Example 5]	168	> 7.00
O=C(NS(=O)(=O)C1CC1)c1ccc(N2C3CC[C@H]2CC(OCc2c(-c4c(Cl)cccc4Cl)noc2C2CC2)C3)c(F)c1 (some centres unmarked) [Example 6]	170	> 7.00
